# Source: PubChem BioAssay AID252 (DTP/NCI, 2004)
# Inconclusive results and toxic doses are left out.
# Tested on: BDF1 mice, intracerebral L1210 leukemia, survival T/C
# Assay: NCI In Vivo Anticancer Drug Screen. Data for tumor model L1210 Leukemia (intracerebral) in B6D2F1 (BDF1) mice
# Conditions: higher = longer survival
# Method in brief: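 Tumour was transplanted, animals received compound or vehicle, then survival in each group was measured and treated divided by control.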
# [1] = endpoint: mean survival time, dose: 1.5 mg/kg/injection, schedule: Q01DX001 (ip), vehicle: carboxymethylcellulose (CMC)
# [2] = endpoint: mean survival time, dose: 12.0 mg/kg/injection, schedule: Q01DX001 (ip), vehicle: carboxymethylcellulose (CMC)
# [3] = endpoint: mean survival time, dose: 18.0 mg/kg/injection, schedule: Q01DX001 (ip), vehicle: carboxymethylcellulose (CMC)
structure (smiles),measurement,setting,value
Cc1nc(N)nc(N)c1-c1ccc(Cl)c(Cl)c1,T/C,"endpoint: mean survival time, dose: 1.08 mg/kg/injection, schedule: Q01DX009 (ip), vehicle: saline",105 % of control
same,T/C,"endpoint: mean survival time, dose: 1.8 mg/kg/injection, schedule: Q01DX009 (ip), vehicle: saline",95 % of control
same,T/C,"endpoint: mean survival time, dose: 3.0 mg/kg/injection, schedule: Q01DX009 (ip), vehicle: saline",98 % of control
same,T/C,"endpoint: mean survival time, dose: 5.0 mg/kg/injection, schedule: Q01DX009 (ip), vehicle: saline",97 % of control
same,T/C,"endpoint: mean survival time, dose: 8.4 mg/kg/injection, schedule: Q01DX009 (ip), vehicle: saline",111 % of control
same,T/C,"endpoint: mean survival time, dose: 8.4 mg/kg/injection, schedule: Q04DX003 (ip), vehicle: saline",104 % of control
same,T/C,"endpoint: mean survival time, dose: 14.0 mg/kg/injection, schedule: Q04DX003 (ip), vehicle: saline",96 % of control
same,T/C,"endpoint: mean survival time, dose: 23.0 mg/kg/injection, schedule: Q04DX003 (ip), vehicle: saline",103 % of control
same,T/C,"endpoint: mean survival time, dose: 39.0 mg/kg/injection, schedule: Q04DX003 (ip), vehicle: saline",93 % of control
same,T/C,"endpoint: mean survival time, dose: 65.0 mg/kg/injection, schedule: Q04DX003 (ip), vehicle: saline",103 % of control
same,T/C,"endpoint: median survival time, dose: 0.62 mg/kg/injection, schedule: Q01DX009 (ip), vehicle: saline",106 % of control
same,T/C,"endpoint: median survival time, dose: 1.25 mg/kg/injection, schedule: Q01DX009 (ip), vehicle: saline",115 % of control
same,T/C,"endpoint: median survival time, dose: 5.0 mg/kg/injection, schedule: Q01DX009 (ip), vehicle: saline",117 % of control
same,T/C,"endpoint: median survival time, dose: 10.0 mg/kg/injection, schedule: Q01DX009 (ip), vehicle: saline",104 % of control
O=NN(CCCl)C(=O)Nc1cccc2cccnc12,T/C,"endpoint: mean survival time, dose: 1.0 mg/kg/injection, schedule: Q01DX001 (ip), vehicle: carboxymethylcellulose (CMC)",101 % of control
same,T/C,[1],103 % of control
same,T/C,"endpoint: mean survival time, dose: 2.6 mg/kg/injection, schedule: Q01DX001 (ip), vehicle: carboxymethylcellulose (CMC)",104 % of control
same,T/C,"endpoint: mean survival time, dose: 4.0 mg/kg/injection, schedule: Q01DX001 (ip), vehicle: carboxymethylcellulose (CMC)",105 % of control
same,T/C,"endpoint: mean survival time, dose: 6.0 mg/kg/injection, schedule: Q01DX001 (ip), vehicle: carboxymethylcellulose (CMC)",101 % of control
same,T/C,"endpoint: mean survival time, dose: 9.0 mg/kg/injection, schedule: Q01DX001 (ip), vehicle: carboxymethylcellulose (CMC)",102 % of control
same,T/C,[2],98 % of control
same,T/C,[3],98 % of control
CC1(NC(=O)N(CCCl)N=O)CCCC1,T/C,"endpoint: mean survival time, dose: 12.5 mg/kg/injection, schedule: Q01DX001 (ip), vehicle: carboxymethylcellulose (CMC)",91 % of control
same,T/C,"endpoint: mean survival time, dose: 25.0 mg/kg/injection, schedule: Q01DX001 (ip), vehicle: carboxymethylcellulose (CMC)",102 % of control
same,T/C,"endpoint: mean survival time, dose: 50.0 mg/kg/injection, schedule: Q01DX001 (ip), vehicle: carboxymethylcellulose (CMC)",100 % of control
same,T/C,"endpoint: mean survival time, dose: 100.0 mg/kg/injection, schedule: Q01DX001 (ip), vehicle: carboxymethylcellulose (CMC)",100 % of control
same,T/C,"endpoint: mean survival time, dose: 125.0 mg/kg/injection, schedule: Q01DX001 (ip), vehicle: carboxymethylcellulose (CMC)",347 % of control
same,T/C,"endpoint: mean survival time, dose: 187.0 mg/kg/injection, schedule: Q01DX001 (ip), vehicle: carboxymethylcellulose (CMC)",285 % of control
same,T/C,"endpoint: mean survival time, dose: 250.0 mg/kg/injection, schedule: Q01DX001 (ip), vehicle: carboxymethylcellulose (CMC)",276 % of control
O=NN(CCCl)C(=O)Nc1cc(NC(=O)N(CCCl)N=O)cc(C(=O)O)c1,T/C,[1],108 % of control
same,T/C,"endpoint: mean survival time, dose: 3.0 mg/kg/injection, schedule: Q01DX001 (ip), vehicle: carboxymethylcellulose (CMC)",106 % of control
same,T/C,"endpoint: mean survival time, dose: 5.0 mg/kg/injection, schedule: Q01DX001 (ip), vehicle: carboxymethylcellulose (CMC)",104 % of control
same,T/C,"endpoint: mean survival time, dose: 8.0 mg/kg/injection, schedule: Q01DX001 (ip), vehicle: carboxymethylcellulose (CMC)",104 % of control
same,T/C,[2],102 % of control
same,T/C,[3],110 % of control
same,T/C,"endpoint: mean survival time, dose: 26.0 mg/kg/injection, schedule: Q01DX001 (ip), vehicle: carboxymethylcellulose (CMC)",106 % of control
same,T/C,"endpoint: mean survival time, dose: 40.0 mg/kg/injection, schedule: Q01DX001 (ip), vehicle: carboxymethylcellulose (CMC)",93 % of control
same,T/C,"endpoint: mean survival time, dose: 60.0 mg/kg/injection, schedule: Q01DX001 (ip), vehicle: carboxymethylcellulose (CMC)",87 % of control
O=C1C=C(N2CC2)C(=O)C(N2CC2)=C1N1CC1,T/C,"endpoint: mean survival time, dose: 0.01 mg/kg/injection, schedule: Q01DX009 (ip), vehicle: saline",94 % of control
same,T/C,"endpoint: mean survival time, dose: 0.02 mg/kg/injection, schedule: Q01DX009 (ip), vehicle: saline",100 % of control
same,T/C,"endpoint: mean survival time, dose: 0.05 mg/kg/injection, schedule: Q01DX009 (ip), vehicle: saline",116 % of control
